Where “and” joins values, the source holds several entries; their conditions need not be identical. Equal values may be shown once. Read-outs that look alike come from different tables or passages of the source.
Tests used:
[1] = PK/PD study: plasma Δ^9-THC levels after single-dose inhalation of Cannabis flos with the metered-dose inhaler
[2] = system: patients suffering from chronic neuropathic pain; conditions: cited from earlier work; for reduction of pain intensity: vaporized 10.3 mg total available Δ^9-THC in two sessions
[3] = system: patients suffering from neuropathic pain; experiment: Adverse effects, blood pressure and heart rate after single-dose inhalation (PK/PD study); format: in vivo, human; conditions: for heart rate: baseline 71±12, P=0.873; for mean diastolic blood pressure: baseline 82±9, P=0.410; for mean systolic blood pressure: baseline 133±13, P=0.068; for adverse effects (overall): single inhalation, 8 patients
Experimental: (§1) Pain intensity reduction was assessed as a therapeutic effect by asking participants to indicate the intensity of their current pain on a 100 mm visual analog scale (VAS) between 0 (no pain) and 100 (worst possible pain) at baseline (prior to the inhalation) and at 20 and 90 minutes following the pulmonary delivery of the pharmaceutically active agent from cannabis. Adverse effects, in the form of psychotropic symptoms, were recorded at 5, 15, 30, 60 and 120 minutes post pulmonary delivery, along with those spontaneously reported by the participants. Adverse effects were evaluated according to standardized criteria in terms of severity, frequency, duration and relationship to the study's active agent. Adverse effects were graded using the NIH Division of AIDS table for scoring severity of adult adverse experiences. Blood pressure and pulse rate were also recorded before, during and after the pulmonary delivery.
(§2) Results are reported herein as mean values±1 standard deviation (±SD). For each one of the measured effects (VAS pain intensity, systolic and diastolic blood pressure, heart rate and satisfaction score), the mean and 95% confidence interval (CI) at different time points was plotted. Differences between VAS pain intensity values and satisfaction scores, before and after inhalation, were tested by two-tailed paired Student t-test. Blood pressure and heart rate values were compared among different time points by one-way ANOVA. P-values<0.05 were accepted as significant. All statistical analyses were performed using Minitab Statistical Software, version 16.

[4] = cited from earlier work; for mean Cmax increase per mg Δ^9-THC: Huestis et al.
[5] = system: patients suffering from neuropathic pain; experiment: VAS pain intensity after single-dose inhalation (PK/PD study); format: in vivo, human
Experimental: The study was used to further evaluate the pharmacodynamic effect of pulmonary delivery of Δ^9-THC on pain reduction from baseline using a 10 cm visual analog scale (VAS) pain scale (0 being no pain; and 10 being worst possible pain); for monitoring adverse effects, blood pressure and heart rate, and for estimating the degree of satisfaction with the use of the MDI on a 0-10 scale.
as §1, §2

[6] = single inhalation, 3.08±0.02 mg total available Δ^9-THC

## CCCCCc1cc(O)c2c(c1)OC(C)(C)[C@@H]1CCC(CO)=C[C@@H]21 [11-OH-THC, 11-hydroxy Δ^9-THC]
[1]; blood sampling 0-120 minutes after inhalation
  plasma levels of the active metabolite: No measurable plasma levels

## CCCCCc1cc(O)c2c(c1)OC(C)(C)[C@@H]1CCC(C)=C[C@@H]21 [Δ^9-THC, Δ9-tetrahydrocannabinol]
[2]; Ware et al. 2010, single smoke inhalation of 25±1 mg cannabis with 9.4% Δ^9-THC (2.35 mg), three times a day for 5 days
  mean Cmax elevation: 45 ng/mL
[2]; Ware et al. 2010, single smoke inhalation of 25±1 mg cannabis with 9.4% Δ^9-THC, three times a day for 5 days, compared to placebo
  decrease in average daily pain intensity: 11.4%
[2]; Wilsey et al. 2008, smoking 19 mg or 34 mg total available Δ^9-THC divided to 3 doses
  reduction of neuropathic pain (plateau, ceiling effect): 45%
[2]; Wilsey et al. 2013, THC dose increased to 28.2 mg
  analgesic response compared with the 10.3 mg dose: equianalgesic response
[2]; Wilsey et al. 2013, 3 hours
  reduction of pain intensity: 31%
[2]; Wilsey et al. 2013, 5 hours
  reduction of pain intensity: 25%
[3]; 30 minutes post-inhalation
  heart rate: 72±11 bpm
  mean diastolic blood pressure: 75±10 mm Hg
  mean systolic blood pressure: 122±10 mm Hg
[3]; 90 minutes post-inhalation
  heart rate: 69±13 bpm
  mean diastolic blood pressure: 81±12 mm Hg
  mean systolic blood pressure: 121±11 mm Hg
[3]; all the other patients
  time to full recovery from light headedness: ≤ 30 min
[3]; first 10 minutes following inhalation, seven of eight patients
  patients experiencing light headedness: 87.5%
[3]
  adverse effects (overall): minimal, reversible and well tolerated
[3]; listed as THC
  adverse effects (overall): minimal, reversible and receded rapidly
[3]; three patients
  time to full recovery from light headedness: ≤ 15 min
[4]; Volcano vaporizer, Abrams et al. 2007, 2011
  increase of Cmax per mg of THC: 6.1 to 9.0 ng/mL/mg
[4]; after the first puff of a 1.75% Δ^9-THC cigarette
  mean Cmax increase per mg Δ^9-THC: 3.54 ng/ml per mg
[4]; after the first puff of a 3.55% Δ^9-THC cigarette
  mean Cmax increase per mg Δ^9-THC: 4.28 ng/ml per mg
[4]; intravenous administration, D'Souza et al. 2004
  plasma Cmax per mg of Δ^9-THC administered: 32.8 ng Δ^9-THC/ml plasma and 23.8 ng Δ^9-THC/ml plasma
[4]; oral administration
  inter-individual variability (CV) of Cmax: 42-115%
[4]; oromucosal route of delivery
  inter-individual variability (CV) of Cmax: 59-67%
[4]; regular smoking cigarettes, Ohlsson, Hunault, Huestis
  increase of Cmax per mg of THC: 0.6 to 4.6 ng/mL/mg
[4]; smoking cigarettes
  inter-individual variability (CV) of Cmax: 32-115%
[4]; smoking products of cannabis
  time of peak plasma concentrations: 1 to 3 min
[4]; smoking route, listed as THC
  bioavailability: 2-56% and 2 to 56%
[4]; smoking
  first onset of effects: about 7 minutes
[4]; vaporizer
  inter-individual variability (CV) of Cmax: 47-85%
[5]; 20 minutes after inhalation, baseline 7.5±1.4, 95% CI 2.1-4.9, P=0.001
  decrease of VAS pain intensity from baseline (difference): 3.4 points
[5]; 90 minutes post-dosing
  VAS pain intensity versus baseline: virtually identical results as at baseline
[5]; [6]
  reduction of pain intensity: 45%
  time within which the pain reduction reversed: ≤ 90 min
[1]; MDI device
  inter-individual variability (CV) of peak plasma THC concentration (Cmax): 25.3%
[1]; pulmonary delivery with the MDI device
  increase of Cmax per mg of THC available in the cannabis used (mean): 12.3 ng/mL/mg
[1]; six patients without residual plasma THC at baseline
  time of first detection in blood sample post-inhalation: 1 min

Source: patent US12194230B2, “Methods, devices and systems for pulmonary delivery of active agents” (priority 2014, dated 2025)
